Earlier results as cited in US12297406B2, “Method for preparing a composition comprising cetylated fatty acids” (ALESCO S.R.L., priority 2019, dated 2025).

Settings: European Union food additive E319

acceptable daily intake (ADI): 0.7 mg/kg of body weight
SMILES: CC(C)(C)c1cc(O)ccc1O [TBHQ, Tert-butyl-hydroquinone]
